Reference: patent EP0888055B1, “HERBICIDAL COMPOSITION AND METHOD OF WEED CONTROL” (Novartis AG, priority 1996, dated 1997)

Columns and labels:
Brachiaria [1] = assay: Post-emergence test (Example B1); assay type: in vivo; conditions: 24 days
Description: (§1) The expected herbicidal action E for a given combination of two herbicides can be calculated as follows (see COLBY, S.R., "Calculating synergistic and antagonistic response of herbicide combinations", Weeds 15, pages 20-22, 1967): E = X +(Y • (100 - X))/(100) [formula]
(§2) In the above formula: X = percentage growth inhibition in the case of treatment with the compound of formula A at a rate of application of p kg per hectare compared with the untreated control (= 0 %). Y = percentage herbicidal action in the case of treatment with one of the mixing partners at a rate of application of q kg per hectare compared with the untreated control. E = Expected herbicidal action (percentage herbicidal action compared with the untreated control) after treatment with the compounds of formulae A and the mixing partners at a rate of application of p + q kg of active ingredient per hectare.
(§3) The test plant seeds are grown to the 4- to 6-leaf stage under greenhouse conditions in plastics pots. The culture substrate used is a standard soil. At the 4- to 6-leaf stage the herbicides are applied separately and in admixture to the test plants. The test compounds are applied in the form of an aqueous suspension (Formulation Example F8, c)) in 500 l of water/ha. The rates of application conform to the optimum concentrations ascertained under field conditions and greenhouse conditions. Evaluation of the tests is carried out after 24 days. The following linear scale is used as a measure (% action): • 100 % = plants have died • 50 % = moderate action • 0 % = no phytotoxic action (as untreated control).
(§4) Test plants: brachiaria, cyperus, digitaria, echinochloa, panicum.

Digitaria = assay: Post-emergence test (Example B1); assay type: in vivo; conditions: 24 days
Description: as §1, §2, §3, §4

Echinochloa = assay: Post-emergence test (Example B1); assay type: in vivo; conditions: 24 days
Description: as §1, §2, §3, §4

Panicum = assay: Post-emergence test (Example B1); assay type: in vivo; conditions: 24 days
Description: as §1, §2, §3, §4

Cyperus = assay: Post-emergence test (Example B1); assay type: in vivo; conditions: 24 days
Description: as §1
In the above formula: X = percentage growth inhibition in the case of treatment with the compound of formula A at a rate of application of p kg per hectare compared with the untreated control (= 0 %). Y = percentage herbicidal action in the case of treatment with one of the mixing partners at a rate of application of q kg per hectare compared with the untreated control.
The test plant seeds are grown to the 4- to 6-leaf stage under greenhouse conditions in plastics pots. The culture substrate used is a standard soil. At the 4- to 6-leaf stage the herbicides are applied separately and in admixture to the test plants. The test compounds are applied in the form of an aqueous suspension (Formulation Example F8, c)) in 500 l of water/ha. The rates of application conform to the optimum concentrations ascertained under field conditions and greenhouse conditions. Evaluation of the tests is carried out after 24 days.
as §4

Maize [2] = assay: Pre-emergence test (Example B2), tolerance of useful plant; assay type: in vivo
Description: (§5) The test plants are sown in plastics pots in standard soil. Directly after sowing the test compounds are applied by spraying, separately or in admixture, in the form of an aqueous suspension of the test compounds (Formulation Example F8, c) and d)) or in the form of an emulsion concentrate (Formulation Example F1, d)) in 500 l of water/ha. The rates of application conform to the optimum concentrations ascertained under field conditions and greenhouse conditions. The test plants are then cultivated in the greenhouse under optimum conditions. After 34 days' (Tables B2 to B5) and 41 days' (Table B6) test duration, the test is evaluated (% action, 100 % = plants have died, 0 % = no phytotoxic action). From 61 to 80 % (especially from 81 to 100 %) phytotoxicity indicates good to very good herbicidal action in weeds; from 0 to 15 % (especially from 0 to 5 %) phytotoxicity indicates good to very good tolerance in useful plants.

Abutilon = assay: Pre-emergence test (Example B2); assay type: in vivo
Description: as §1, §2, §5
(§6) Test plants: abutilon, bidens, euphorbia, ipomoea, sesbamia, xanthium, rottboellia, sida, Sorghum bicolor.

Bidens = assay: Pre-emergence test (Example B2); assay type: in vivo; conditions: 34 days
Description: as §1, §2, §5, §6

Euphorbia = assay: Pre-emergence test (Example B2); assay type: in vivo
Description: as §1, §2, §5, §6

Ipomoea = assay: Pre-emergence test (Example B2); assay type: in vivo
Description: as §1, §2, §5, §6

Rottboellia = assay: Pre-emergence test (Example B2); assay type: in vivo
Description: as §1, §2, §5, §6

Sesbania = assay: Pre-emergence test (Example B2); assay type: in vivo; conditions: 60 g active ingredient/ha, 34 days
Description: as §1, §2, §5, §6

Sida = assay: Pre-emergence test (Example B2); assay type: in vivo
Description: as §1, §2, §5, §6

Xanthium = assay: Pre-emergence test (Example B2); assay type: in vivo; conditions: 34 days
Description: as §1, §2, §5, §6

Brachiaria [3] = assay: Pre-emergence test (Example B2); assay type: in vivo; conditions: 60 g active ingredient/ha, 34 days
Description: as §1, §2, §5

Sorghum bic. = assay: Pre-emergence test (Example B2); assay type: in vivo, Sorghum bicolor; conditions: 8 g active ingredient/ha, 41 days
Description: as §1, §2
The test plants are sown in plastics pots in standard soil. Directly after sowing the test compounds are applied by spraying, separately or in admixture, in the form of an aqueous suspension of the test compounds (Formulation Example F8, c) and d)) or in the form of an emulsion concentrate (Formulation Example F1, d)) in 500 l of water/ha. […] After 34 days' (Tables B2 to B5) and 41 days' (Table B6) test duration, the test is evaluated (% action, 100 % = plants have died, 0 % = no phytotoxic action). […]

Maize [4] = assay: Breakdown in treated useful plants; conditions: after application of the compositions; especially maize; compared with metolachlor
[5] = 8 g active ingredient/ha, 41 days
[6] = 15 g active ingredient/ha, 34 days
[7] = 15 g active ingredient/ha, 41 days
[8] = 30 g active ingredient/ha, 34 days
[9] = 60 g active ingredient/ha, 34 days
[10] = 60 g active ingredient/ha, 41 days
[11] = 30 g active ingredient/ha, 41 days

In the case of C=CCOC(=O)C(C)(C)OC(=O)c1cc(-n2c(=O)cc(C(F)(F)F)n(C)c2=O)ccc1Cl [A], the “Herbicidal activity, Weed: Brachiaria” value (Brachiaria [1]; 100 g active ingredient/ha) is reported as 10%, the “Herbicidal activity, Weed: Brachiaria” value (Brachiaria [1]; 200 g active ingredient/ha) is reported as 15% and the “Herbicidal activity, Weed: Digitaria” value (Digitaria; 50 g active ingredient/ha) is reported as 85%. The “Herbicidal activity, Weed: Digitaria” value (Digitaria; 100 g active ingredient/ha) was 90%, the “Herbicidal activity, Weed: Digitaria” value (Digitaria; 200 g active ingredient/ha) was 90% and the “Herbicidal activity, Weed: Echinochloa” value (Echinochloa; 100 g active ingredient/ha) was 15%. The “Herbicidal activity, Weed: Echinochloa” value (Echinochloa; 200 g active ingredient/ha) was 45%, the “Herbicidal activity, Weed: Panicum” value (Panicum; 50 g active ingredient/ha) was 50% and the “Herbicidal activity, Weed: Panicum” value (Panicum; 200 g active ingredient/ha) was 70%. For the same compound, the “Herbicidal activity, Weed: Cyperus” value (Cyperus; 50 g active ingredient/ha) was 50%, the “Herbicidal activity, Weed: Cyperus” value (Cyperus; 100 g active ingredient/ha) was 60% and the “Herbicidal activity, Useful plant: Maize” value (Maize [2]; [5]) was 0%. For the same compound, the “Herbicidal activity, Useful plant: Maize” value (Maize [2]; [6]) was 0%, the “Herbicidal activity, Useful plant: Maize” value (Maize [2]; [7]) was 0% and the “Herbicidal activity, Useful plant: Maize” value (Maize [2]; [8]) was 10%. For the same compound, the “Herbicidal activity, Useful plant: Maize” value (Maize [2]; [9]) was 10%, the “Herbicidal activity, Useful plant: Maize” value (Maize [2]; [10]) was 40% and the “Herbicidal activity, Weed: Abutilon” value (Abutilon; [5]) was 50%. For the same compound, the “Herbicidal activity, Weed: Abutilon” value (Abutilon; [6]) was 20%, the “Herbicidal activity, Weed: Abutilon” value (Abutilon; [7]) was 80% and the “Herbicidal activity, Weed: Abutilon” value (Abutilon; [8]) was 40%. The “Herbicidal activity, Weed: Bidens” value (Bidens; 15 g active ingredient/ha) was 20%, the “Herbicidal activity, Weed: Bidens” value (Bidens; 30 g active ingredient/ha) was 30% and the “Herbicidal activity, Weed: Bidens” value (Bidens; 60 g active ingredient/ha) was 90%. For the same compound, the “Herbicidal activity, Weed: Euphorbia” value (Euphorbia; [6]) was 0%, the “Herbicidal activity, Weed: Euphorbia” value (Euphorbia; [7]) was 85% and the “Herbicidal activity, Weed: Euphorbia” value (Euphorbia; [8]) was 90%. The “Herbicidal activity, Weed: Ipomoea” value (Ipomoea; [8]) was 20%, the “Herbicidal activity, Weed: Ipomoea” value (Ipomoea; [11]) was 0% and the “Herbicidal activity, Weed: Ipomoea” value (Ipomoea; [9]) was 30%. The “Herbicidal activity, Weed: Rottboellia” value (Rottboellia; [11]) was 80%, the “Herbicidal activity, Weed: Rottboellia” value (Rottboellia; [9]) was 30% and the “Herbicidal activity, Weed: Rottboellia” value (Rottboellia; [10]) was 70%. The “Herbicidal activity, Weed: Sesbania” value (Sesbania) was 50%, the “Herbicidal activity, Weed: Sida” value (Sida; [5]) was 40% and the “Herbicidal activity, Weed: Sida” value (Sida; [6]) was 80%. The “Herbicidal activity, Weed: Xanthium” value (Xanthium; 15 g active ingredient/ha) was 0%, the “Herbicidal activity, Weed: Xanthium” value (Xanthium; 30 g active ingredient/ha) was 0% and the “Herbicidal activity, Weed: Xanthium” value (Xanthium; 60 g active ingredient/ha) was 20%. The “Herbicidal activity, Weed: Brachiaria” value (Brachiaria [3]) was 60%, the “Herbicidal activity, Weed: Sorghum bic.” value (Sorghum bic.) was 0% and the “breakdown in the useful plants treated” value (Maize [4]) was “broken down more rapidly”.
